{"source": "patent US7612087B2", "about": "“Heterocyclic compounds as inhibitors of beta-lactamases” (Novexel, priority 2002, dated 2009)", "key": {"β-lactamase P99": {"target": "T1, β-lactamase P99 (Enterobacter cloacae, UniProt P05364)", "T1 construct": "The β-lactamases are isolated from bacterial strains which are resistant to penicillins and cephalosporins; endogenous in cells; host or cells: Enterobacter cloacae 293HT6 (natural producer; French-press lysate, 100,000 g supernatant)", "T1 sequence (P05364 21-381)": "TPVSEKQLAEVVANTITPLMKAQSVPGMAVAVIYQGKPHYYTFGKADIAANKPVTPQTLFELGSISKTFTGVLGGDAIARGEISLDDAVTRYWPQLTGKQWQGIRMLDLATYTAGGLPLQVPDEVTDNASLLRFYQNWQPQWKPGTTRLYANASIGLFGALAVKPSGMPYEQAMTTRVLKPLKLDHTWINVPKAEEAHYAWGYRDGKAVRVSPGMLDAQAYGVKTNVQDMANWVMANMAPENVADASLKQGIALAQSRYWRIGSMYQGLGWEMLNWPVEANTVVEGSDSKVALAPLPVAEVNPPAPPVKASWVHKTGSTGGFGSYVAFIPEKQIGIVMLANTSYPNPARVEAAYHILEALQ", "assay": "biochemical", "conditions": "100 μM Nitrocefin, 50 mM sodium phosphate buffer pH7.0, 37° C.; read-out: IC50 nM/P99", "procedure": "(§1) A. Preparation of the β-lactamases Tem-1 and P99\n(§2) The β-lactamases are isolated from bacterial strains which are resistant to penicillins and cephalosporins (Tem1 and P99 are produced by E.coli 250HT21 and E.Cloacae 293HT6 respectively).\n(§3) The bacteria are cultured at 37° C. in heart-brain culture at 37 g/l (DIFCO). They are harvested at the end of the exponential phase, cooled down and centrifuged. The bacterial pellets are taken up in sodium phosphate buffer 50 mM, pH 7.0 and centrifuged again. The bacteria are taken up in two volumes of the same buffer and lyzed using a French-Press maintained at 4° C. After centrifugation for 1 hour at 100,000 g, at 4° C., the supernatants containing the soluble fraction of the bacterial extracts are recovered and frozen at −80° C.\n(§4) The method uses Nitrocefin (OXOID), cephalosporin chromogene as substrate, of which the product hydrolyzed by the B-lactamases is red and absorbs at 485 nm. Beta-lactamase activity is determined kinetically by measurement of the absorbance variation at 485 nm resulting from the hydrolysis of the substrate using a plate spectrophotometer (Spectra Max More Molecular Devices). The experiments are carried out at 37° C. The quantity of enzyme was normalized and the measurements are carried out at initial speed.\n(§5) Two measurements were carried out, without preincubation and with preincubation of the enzyme and inhibitor (5 mn), in order to test the irreversibility of the reaction. The products are tested at 6 or 8 concentrations in duplicate. The reaction mixture contains 100 μM of Nitrocefin and 50 mM sodium phosphate buffer pH7.0.\n(§6) The hydrolysis speeds are measured with and without inhibitor. The concentration of inhibitor which inhibits by 50% the hydrolysis reaction of Nitrocefin by the enzyme (CI50) is determined. The data is processed using GraFit software (Erathycus Software)."}, "β-lactamase TEM1": {"target": "T2, β-lactamase TEM1 (Escherichia coli, UniProt P62593)", "T2 construct": "The β-lactamases are isolated from bacterial strains which are resistant to penicillins and cephalosporins; endogenous in cells; host or cells: E. coli 250HT21 (natural producer; French-press lysate, 100,000 g supernatant)", "T2 sequence (P62593 24-286 limits assumed)": "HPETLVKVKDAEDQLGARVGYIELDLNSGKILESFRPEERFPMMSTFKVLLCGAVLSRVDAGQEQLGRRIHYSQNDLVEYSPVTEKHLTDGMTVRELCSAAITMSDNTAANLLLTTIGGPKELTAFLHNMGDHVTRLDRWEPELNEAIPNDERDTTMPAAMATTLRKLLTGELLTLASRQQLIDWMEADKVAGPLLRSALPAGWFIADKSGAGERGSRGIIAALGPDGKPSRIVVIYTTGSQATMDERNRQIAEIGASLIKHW", "assay": "Inhibition of isolated β-lactamase Tem-1 (Nitrocefin hydrolysis)", "type": "biochemical, E.coli 250HT21", "conditions": "100 μM Nitrocefin, 50 mM sodium phosphate buffer pH7.0, 37° C.", "procedure": "as §1, §2, §3, §4, §5, §6"}}, "note": "Where a name gives a salt, the structure may show the parent alone.", "data": [{"compound": "6-benzoyl—N—[methyl(phenylmethyl)]-7-oxo-1,6-diazabicyclo[3.2.1]octane-2-carboxamide [Example 29e]", "values": [{"measurement": "IC50", "setting": "β-lactamase P99", "value": 6300, "unit": "nM"}, {"measurement": "IC50", "setting": "β-lactamase TEM1", "value": 4200, "unit": "nM"}]}, {"compound": "O=C(O)CC[C@@H]1CCN2C[C@H]1OC2=O", "note": "(relative stereo) [Example 1a, cis-7-oxo-6-oxa-1-azabicyclo[3.2.1]octane-4-propanoic acid]", "values": [{"measurement": "IC50", "setting": "β-lactamase P99", "value": "> 10000", "unit": "nM"}, {"measurement": "IC50", "setting": "β-lactamase TEM1", "value": 700, "unit": "nM"}]}, {"compound": "O=C(C[C@@H]1CCN2C[C@@H]1OC2=O)OC(c1ccccc1)c1ccccc1", "note": "(relative stereo) [Example 2, Trans diphenylmethyl 7-oxo-6-oxa-1-azabicyclo[3.2.1]octan-4-acetate]", "values": [{"measurement": "IC50", "setting": "β-lactamase TEM1", "value": 462, "unit": "nM"}]}, {"compound": "O=C(O)C[C@@H]1CCN2C[C@@H]1OC2=O", "note": "(relative stereo) [Example 2a, trans-7-oxo-6-oxa-1-azabicyclo[3.2.1]octan-4-acetic acid]", "values": [{"measurement": "IC50", "setting": "β-lactamase TEM1", "value": 6730, "unit": "nM"}]}, {"compound": "O=C(C[C@@H]1CCN2C[C@H]1OC2=O)OC(c1ccccc1)c1ccccc1", "note": "(relative stereo) [Example 3, cis diphenylmethyl 7-oxo-6-oxa-1-azabicyclo[3.2.1]octan-4-acetate]", "values": [{"measurement": "IC50", "setting": "β-lactamase P99", "value": 9800, "unit": "nM"}, {"measurement": "IC50", "setting": "β-lactamase TEM1", "value": 590, "unit": "nM"}]}, {"compound": "O=C(O)C[C@@H]1CCN2C[C@H]1OC2=O", "note": "(relative stereo) [Example 3a, cis-7-oxo-6-oxa-1-azabicyclo[3.2.1]octan-4-acetic acid]", "values": [{"measurement": "IC50", "setting": "β-lactamase TEM1", "value": 4400, "unit": "nM"}]}, {"compound": "COC(=O)C[C@@H]1CCN2C[C@H]1OC2=O", "note": "(relative stereo) [Example 3b, cis methyl 7-oxo-6-oxa-1-azabicyclo[3.2.1]octan-4-acetate]", "values": [{"measurement": "IC50", "setting": "β-lactamase TEM1", "value": 2010, "unit": "nM"}]}, {"compound": "N#CC[C@@H]1CCN2C[C@H]1OC2=O", "note": "(relative stereo) [Example 4, cis-7-oxo-6-oxa-1-azabicyclo[3.2.1]octan-4-acetonitrile]", "values": [{"measurement": "IC50", "setting": "β-lactamase TEM1", "value": 2710, "unit": "nM"}]}, {"compound": "O=C(OCc1ccccc1)[C@H]1C[C@@H]2CN1C(=O)N2C(=O)c1ccccc1", "note": "(relative stereo) [Example 7a, trans phenylmethyl 3-benzoyl-2-oxo-1,3-diazabicyclo[2.2.1]heptane-6-carboxylate]", "values": [{"measurement": "IC50", "setting": "β-lactamase P99", "value": 17, "unit": "nM"}, {"measurement": "IC50", "setting": "β-lactamase TEM1", "value": 55, "unit": "nM"}]}, {"compound": "O=C(OCc1ccccc1)[C@H]1C[C@@H]2CN1C(=O)N2S(=O)(=O)c1ccccc1", "note": "(relative stereo) [Example 8, trans phenylmethyl 2-oxo-3-(phenylsulphonyl)-1,3-diazabicyclo[2.2.1]heptane-6-carboxylate]", "values": [{"measurement": "IC50", "setting": "β-lactamase P99", "value": 62, "unit": "nM"}, {"measurement": "IC50", "setting": "β-lactamase TEM1", "value": 1400, "unit": "nM"}]}, {"compound": "C[C@@]12C[C@H](C(=O)OCc3ccccc3)N(C1)C(=O)N2C(=O)c1ccccc1", "note": "(relative stereo) [Example 9, trans phenylmethyl 3-benzoyl-4-methyl-2-oxo-1,3-diazabicyclo[2.2.1]heptane-6-carboxylate]", "values": [{"measurement": "IC50", "setting": "β-lactamase P99", "value": 630, "unit": "nM"}, {"measurement": "IC50", "setting": "β-lactamase TEM1", "value": 8500, "unit": "nM"}]}, {"compound": "O=C(OCc1ccccc1)[C@@H]1C[C@@H]2CN1C(=O)N2OS(=O)(=O)O", "note": "(relative stereo) [Example 10, 1-propenyltriphenylphosphonium salt of trans phenylmethyl 2-oxo-3-(sulphooxy)-1,3-diazabicyclo[2.2.1]heptane-6-carboxylate]", "values": [{"measurement": "IC50", "setting": "β-lactamase P99", "value": 1.5, "unit": "nM"}, {"measurement": "IC50", "setting": "β-lactamase TEM1", "value": 0.26, "unit": "nM"}]}, {"compound": "COC(=O)[C@@H]1CC[C@@H]2CN1C(=O)O2", "note": "(relative stereo) [Example 26c, trans methyl 7-oxo-6-oxa-1-azabicyclo[3.2.1]octane-2-carboxylate]", "values": [{"measurement": "IC50", "setting": "β-lactamase P99", "value": 7000, "unit": "nM"}, {"measurement": "IC50", "setting": "β-lactamase TEM1", "value": 1100, "unit": "nM"}]}, {"compound": "O=C(NCc1ccccc1)[C@@H]1CC[C@@H]2CN1C(=O)N2C(=O)c1ccccc1", "note": "(relative stereo) [Example 29d, trans-6-benzoyl-7-oxo-N-(phenylmethyl)-1,6-diazabicyclo[3.2.1]octane-2-carboxamide]", "values": [{"measurement": "IC50", "setting": "β-lactamase P99", "value": 2000, "unit": "nM"}, {"measurement": "IC50", "setting": "β-lactamase TEM1", "value": 9500, "unit": "nM"}]}, {"compound": "O=C(c1ccccc1)N1C(=O)N2CCC1C2", "note": "(centres unmarked) [Example 5, 3-benzoyl-1,3-diazabicyclo[2.2.1]heptan-2-one]", "values": [{"measurement": "IC50", "setting": "β-lactamase TEM1", "value": 1010, "unit": "nM"}]}, {"compound": "O=C(c1ccccc1)N1C(=O)N2CCCC1C2", "note": "(centres unmarked) [Example 14, 6-benzoyl-1,6-diazabicyclo[3.2.1]octan-7-one]", "values": [{"measurement": "IC50", "setting": "β-lactamase TEM1", "value": 6400, "unit": "nM"}]}, {"compound": "Cc1ccc(S(=O)(=O)ON2C(=O)N3CCCC2C3)cc1", "note": "(centres unmarked) [Example 19e, 6-[[(4-methylphenyl)sulphonyl]oxy]-1,6-diazabicyclo[3.2.1]octan-7-one]", "values": [{"measurement": "IC50", "setting": "β-lactamase TEM1", "value": 11, "unit": "nM"}]}, {"compound": "CS(=O)(=O)ON1C(=O)N2CCCC1C2", "note": "(centres unmarked) [Example 19f, 6-[(methylsulphonyl)oxy]-1,6-diazabicyclo[3.2.1]octan-7-one]", "values": [{"measurement": "IC50", "setting": "β-lactamase TEM1", "value": 110, "unit": "nM"}]}, {"compound": "O=C1N2CCCC(C2)N1OS(=O)(=O)c1ccc([N+](=O)[O-])cc1", "note": "(centres unmarked) [Example 19g]", "values": [{"measurement": "IC50", "setting": "β-lactamase TEM1", "value": 29, "unit": "nM"}]}, {"compound": "O=C1OC2C=CCN1C2", "note": "(centres unmarked) [Example 22, 6-oxa-1-azabicyclo[3.2.1]oct-3-en-7-one]", "values": [{"measurement": "IC50", "setting": "β-lactamase TEM1", "value": 5100, "unit": "nM"}]}, {"compound": "O=C(O)C1CCC2CN1C(=O)O2", "note": "(stereo not drawn) [Example 26b, trans-7-oxo-6-oxa-1-azabicyclo[3.2.1.]octane-2 carboxylic acid]", "values": [{"measurement": "IC50", "setting": "β-lactamase TEM1", "value": 4900, "unit": "nM"}]}, {"compound": "O=C(OCc1ccccc1)C1CCC2CN1C(=O)N2OS(=O)(=O)O", "note": "(stereo not drawn) [Example 28b, Sodium salt of trans phenylmethyl 7-oxo-6-(sulphooxy)-1,6-diazabicyclo[3.2.1]octane-2-carboxylate]", "values": [{"measurement": "IC50", "setting": "β-lactamase P99", "value": 12, "unit": "nM"}, {"measurement": "IC50", "setting": "β-lactamase TEM1", "value": 9.5, "unit": "nM"}]}, {"compound": "O=C(OCc1ccccc1)C1CCC2CN1C(=O)N2OS(=O)(=O)c1cccs1", "note": "(stereo not drawn) [Example 28d, trans pheylmethyl 7-oxo-6-[(2-thienylsulphonyl)oxy]-1,6-diazabicyclo[3.2.1]octane-2-carboxylate]", "values": [{"measurement": "IC50", "setting": "β-lactamase P99", "value": 390, "unit": "nM"}, {"measurement": "IC50", "setting": "β-lactamase TEM1", "value": 1.3, "unit": "nM"}]}, {"compound": "O=C(O)C1CCC2CN1C(=O)N2C(=O)c1ccccc1", "note": "(stereo not drawn) [Example 29b, trans-6-benzoyl-7-oxo-1,6-iazabicyclo[3.2.1]octane-2-carboxylic acid]", "values": [{"measurement": "IC50", "setting": "β-lactamase P99", "value": 4200, "unit": "nM"}, {"measurement": "IC50", "setting": "β-lactamase TEM1", "value": 460, "unit": "nM"}]}, {"compound": "O=C(c1ccccc1)N1C(=O)N2CC1CCC2CO", "note": "(centres unmarked) [Example 29f, 6-benzoyl-2-(hydroxymethyl)-1,6-diazabicyclo[3.2.1]octan-7-one]", "values": [{"measurement": "IC50", "setting": "β-lactamase TEM1", "value": 5200, "unit": "nM"}]}, {"compound": "C=CCOC(=O)N1C(=O)N2CC1CCC2C(=O)OCc1ccc([N+](=O)[O-])cc1", "note": "(stereo not drawn) [Example 31, trans (4-nitrophenyl)methyl and 2-propenyl 7-oxo-1,6-diazabicyclo[3.2.1]octane-2,6-dicarboxylate]", "values": [{"measurement": "IC50", "setting": "β-lactamase TEM1", "value": 5700, "unit": "nM"}]}, {"compound": "COC1=CC2CN(C1)C(=O)N2OS(=O)(=O)O", "note": "(centres unmarked) [Example 52, Sodium salt of 3-methoxy-6-(sulphooxy)-1,6-diazabicyclo[3.2.1]oct-3-in-7-one]", "values": [{"measurement": "IC50", "setting": "β-lactamase P99", "value": 4600, "unit": "nM"}, {"measurement": "IC50", "setting": "β-lactamase TEM1", "value": 11, "unit": "nM"}]}, {"compound": "O=C1N2CC=CC(C2)N1OS(=O)(=O)O", "note": "(centres unmarked) [Example 53, Sodium salt of 6-(sulphooxy)-1,6-diazabicyclo[3.2.1]oct-3-in-7-one]", "values": [{"measurement": "IC50", "setting": "β-lactamase P99", "value": 5900, "unit": "nM"}, {"measurement": "IC50", "setting": "β-lactamase TEM1", "value": 15, "unit": "nM"}]}, {"compound": "O=C1N2CCCC(C2)N1OS(=O)(=O)O", "note": "(centres unmarked) [Example 54, Sodium salt of 6-(sulphooxy)-1,6-diazabicyclo[3.2.1]octan-7-one]", "values": [{"measurement": "IC50", "setting": "β-lactamase TEM1", "value": 3100, "unit": "nM"}]}, {"compound": "trans phenylmethyl 6-(2-hydroxy-2-oxoethoxy)-7-oxo-1,6-diazabicyclo[3.2.1]octane-2-carboxylate [Example 28e]", "values": [{"measurement": "IC50", "setting": "β-lactamase TEM1", "value": 52, "unit": "nM"}]}]}
